Each block holds one compound with its values, some of them ahead of it.
Tests used:
[1] = target: T1, Serine/threonine-protein kinase Nek11 (Homo sapiens) (UniProt Q8NG66); experiment: Selectivity interaction (KinomeScan (DiscoverX)) EUB0000607a NEK11; conditions: at 10 µM
T1 sequence (whole entry): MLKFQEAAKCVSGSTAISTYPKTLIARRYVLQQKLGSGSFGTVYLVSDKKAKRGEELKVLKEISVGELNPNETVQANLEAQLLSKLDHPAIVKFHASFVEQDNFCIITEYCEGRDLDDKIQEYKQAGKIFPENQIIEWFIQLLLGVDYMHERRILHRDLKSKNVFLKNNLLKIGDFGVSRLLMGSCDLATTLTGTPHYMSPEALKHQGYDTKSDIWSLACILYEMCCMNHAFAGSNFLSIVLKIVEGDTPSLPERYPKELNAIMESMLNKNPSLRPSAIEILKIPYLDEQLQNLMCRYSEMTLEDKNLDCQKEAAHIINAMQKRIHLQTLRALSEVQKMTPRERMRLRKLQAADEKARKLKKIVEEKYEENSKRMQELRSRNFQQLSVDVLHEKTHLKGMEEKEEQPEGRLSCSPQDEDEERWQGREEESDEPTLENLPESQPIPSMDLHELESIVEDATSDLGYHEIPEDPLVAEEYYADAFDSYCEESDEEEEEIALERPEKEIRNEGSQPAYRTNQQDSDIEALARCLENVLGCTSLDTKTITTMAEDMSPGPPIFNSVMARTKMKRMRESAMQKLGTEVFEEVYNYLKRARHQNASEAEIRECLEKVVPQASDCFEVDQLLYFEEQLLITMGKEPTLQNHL

[2] = target: Serine/threonine-protein kinase MARK2 (Homo sapiens) (UniProt Q7KZI7); experiment: Selectivity interaction (ActivX KiNativ screen (kinase selectivity in THP-1 cell lysates)) EUB0000639a MARK2; format: subcellular; conditions: lysate, at 0.04 µM
[3] = target: T2, Rhodopsin kinase GRK7 (Homo sapiens) (UniProt Q8WTQ7); experiment: Selectivity interaction (ProQinase) EUB0000171b GRK7
T2 sequence (whole entry): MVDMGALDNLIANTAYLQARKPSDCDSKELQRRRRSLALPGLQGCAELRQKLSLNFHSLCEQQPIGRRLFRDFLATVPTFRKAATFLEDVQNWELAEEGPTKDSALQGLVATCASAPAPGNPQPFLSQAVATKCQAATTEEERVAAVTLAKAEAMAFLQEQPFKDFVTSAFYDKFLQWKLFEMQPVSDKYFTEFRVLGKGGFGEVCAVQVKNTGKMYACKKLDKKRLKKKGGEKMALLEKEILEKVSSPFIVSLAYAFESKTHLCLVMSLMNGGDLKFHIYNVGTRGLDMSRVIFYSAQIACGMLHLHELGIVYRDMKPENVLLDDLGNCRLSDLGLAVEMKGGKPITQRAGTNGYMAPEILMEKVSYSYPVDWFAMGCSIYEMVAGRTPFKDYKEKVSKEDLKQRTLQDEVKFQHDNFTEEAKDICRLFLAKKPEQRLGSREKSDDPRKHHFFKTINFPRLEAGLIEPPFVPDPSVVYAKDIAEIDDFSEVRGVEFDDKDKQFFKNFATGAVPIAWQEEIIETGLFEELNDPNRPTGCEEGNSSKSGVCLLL

[4] = target: Phosphatidylinositol 4-phosphate 3-kinase C2 domain-containing subunit beta (Homo sapiens) (UniProt O00750); experiment: Selectivity interaction (Ambit KINOMEscan and KiNATiv profiling in Jurkat cells) EUB0000090b PIK3C2B; format: cell-based; conditions: at 1 µM
[5] = target: T3, Serine/threonine-protein kinase D1 (Homo sapiens) (UniProt Q15139); experiment: Selectivity interaction (KinomeScan (DiscoverX)) EUB0000045b PRKD1
T3 sequence (whole entry): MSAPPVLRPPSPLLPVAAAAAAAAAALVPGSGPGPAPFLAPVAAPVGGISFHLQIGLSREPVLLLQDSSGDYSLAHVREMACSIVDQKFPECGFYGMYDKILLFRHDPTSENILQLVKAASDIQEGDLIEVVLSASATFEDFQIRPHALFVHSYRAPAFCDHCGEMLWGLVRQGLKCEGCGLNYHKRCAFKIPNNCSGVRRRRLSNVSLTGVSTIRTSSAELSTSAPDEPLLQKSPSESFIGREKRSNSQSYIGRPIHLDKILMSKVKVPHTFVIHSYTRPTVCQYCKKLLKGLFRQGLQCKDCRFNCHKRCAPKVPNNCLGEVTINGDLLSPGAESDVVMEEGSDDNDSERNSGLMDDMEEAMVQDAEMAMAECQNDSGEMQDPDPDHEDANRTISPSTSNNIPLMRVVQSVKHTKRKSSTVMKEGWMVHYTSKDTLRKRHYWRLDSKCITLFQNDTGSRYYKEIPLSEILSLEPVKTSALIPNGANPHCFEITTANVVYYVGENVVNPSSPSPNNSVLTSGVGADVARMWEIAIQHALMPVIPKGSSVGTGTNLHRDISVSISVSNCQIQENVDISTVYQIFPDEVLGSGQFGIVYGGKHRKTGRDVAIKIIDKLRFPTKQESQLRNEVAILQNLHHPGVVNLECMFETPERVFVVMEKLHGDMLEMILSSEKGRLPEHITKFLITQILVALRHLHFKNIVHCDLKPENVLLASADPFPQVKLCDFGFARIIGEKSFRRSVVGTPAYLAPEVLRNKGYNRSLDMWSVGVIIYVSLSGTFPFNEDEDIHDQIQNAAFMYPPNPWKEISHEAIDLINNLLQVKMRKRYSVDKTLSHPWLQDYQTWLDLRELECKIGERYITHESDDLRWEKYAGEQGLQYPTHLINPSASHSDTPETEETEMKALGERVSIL

[6] = target: Ribosomal protein S6 kinase alpha-5 (Homo sapiens) (UniProt O75582); experiment: Selectivity interaction (KinomeScan (DiscoverX)) EUB0001079a RPS6KA5; conditions: at 1 µM
[7] = target: T4, Mixed lineage kinase domain-like protein (Homo sapiens) (UniProt Q8NB16); experiment: Selectivity interaction (ActivX KiNativ screen (ex vivo kinase selectivity in human PBMCs)) EUB0001619a MLKL; format: cell-based; conditions: PBMC, at 1 µM
T4 sequence (whole entry): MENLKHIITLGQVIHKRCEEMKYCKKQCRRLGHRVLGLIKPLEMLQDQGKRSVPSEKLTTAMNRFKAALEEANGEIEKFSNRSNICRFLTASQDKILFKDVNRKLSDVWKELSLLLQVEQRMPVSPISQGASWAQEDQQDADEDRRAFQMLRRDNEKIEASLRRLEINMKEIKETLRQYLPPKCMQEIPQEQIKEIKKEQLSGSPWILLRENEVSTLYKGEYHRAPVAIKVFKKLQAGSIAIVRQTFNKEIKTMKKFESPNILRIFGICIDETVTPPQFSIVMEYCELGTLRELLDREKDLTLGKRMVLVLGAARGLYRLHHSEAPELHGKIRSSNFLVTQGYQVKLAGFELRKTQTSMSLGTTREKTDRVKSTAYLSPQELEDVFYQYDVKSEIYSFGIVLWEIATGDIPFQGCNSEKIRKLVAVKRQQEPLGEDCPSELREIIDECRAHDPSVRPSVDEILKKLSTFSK

Sequence of Ribosomal protein S6 kinase alpha-5 (Homo sapiens) (O75582 whole entry, looked up, the tested form may be a part): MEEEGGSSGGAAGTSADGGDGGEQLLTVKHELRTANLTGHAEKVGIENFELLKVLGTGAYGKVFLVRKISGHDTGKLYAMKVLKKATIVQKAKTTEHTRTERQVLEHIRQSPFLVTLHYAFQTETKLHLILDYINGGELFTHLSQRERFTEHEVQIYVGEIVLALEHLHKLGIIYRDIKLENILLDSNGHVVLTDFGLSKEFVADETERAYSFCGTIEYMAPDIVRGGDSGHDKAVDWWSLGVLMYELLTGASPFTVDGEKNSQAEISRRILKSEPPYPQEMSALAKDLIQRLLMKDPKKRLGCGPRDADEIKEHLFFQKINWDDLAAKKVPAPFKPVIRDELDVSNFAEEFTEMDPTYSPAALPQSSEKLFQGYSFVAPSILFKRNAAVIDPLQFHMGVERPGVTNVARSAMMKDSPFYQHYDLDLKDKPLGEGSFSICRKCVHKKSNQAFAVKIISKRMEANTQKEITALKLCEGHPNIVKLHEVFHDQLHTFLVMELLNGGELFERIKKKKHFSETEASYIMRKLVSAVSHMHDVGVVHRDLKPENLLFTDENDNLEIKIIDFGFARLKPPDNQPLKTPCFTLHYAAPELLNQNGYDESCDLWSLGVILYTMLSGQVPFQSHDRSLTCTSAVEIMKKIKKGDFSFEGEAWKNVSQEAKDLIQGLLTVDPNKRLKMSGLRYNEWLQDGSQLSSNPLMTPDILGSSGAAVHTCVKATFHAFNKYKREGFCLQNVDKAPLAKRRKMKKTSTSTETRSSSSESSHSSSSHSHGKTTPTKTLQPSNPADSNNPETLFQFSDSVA
Sequence of Serine/threonine-protein kinase MARK2 (Homo sapiens) (Q7KZI7 whole entry): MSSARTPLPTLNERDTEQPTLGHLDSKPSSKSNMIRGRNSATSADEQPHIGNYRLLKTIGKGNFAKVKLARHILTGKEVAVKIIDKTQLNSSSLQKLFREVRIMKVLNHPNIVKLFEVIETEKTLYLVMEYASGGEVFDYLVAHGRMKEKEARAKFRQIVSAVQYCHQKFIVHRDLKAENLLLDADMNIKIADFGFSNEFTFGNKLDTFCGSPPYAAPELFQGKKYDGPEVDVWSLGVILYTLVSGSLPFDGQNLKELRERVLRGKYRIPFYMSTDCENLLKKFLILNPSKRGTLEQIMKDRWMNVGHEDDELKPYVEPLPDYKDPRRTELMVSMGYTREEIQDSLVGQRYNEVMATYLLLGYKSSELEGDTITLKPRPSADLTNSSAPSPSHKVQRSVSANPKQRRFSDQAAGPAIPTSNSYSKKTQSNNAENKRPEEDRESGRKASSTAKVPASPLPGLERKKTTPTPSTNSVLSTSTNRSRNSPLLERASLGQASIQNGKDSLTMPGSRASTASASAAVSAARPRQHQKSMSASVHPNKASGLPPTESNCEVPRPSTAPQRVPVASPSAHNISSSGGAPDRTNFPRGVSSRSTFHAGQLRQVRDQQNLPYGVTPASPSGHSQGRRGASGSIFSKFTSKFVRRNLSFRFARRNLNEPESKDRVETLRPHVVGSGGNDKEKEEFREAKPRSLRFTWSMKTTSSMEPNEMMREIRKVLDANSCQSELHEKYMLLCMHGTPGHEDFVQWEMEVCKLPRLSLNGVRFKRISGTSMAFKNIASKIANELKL
Sequence of Phosphatidylinositol 4-phosphate 3-kinase C2 domain-containing subunit beta (Homo sapiens) (O00750 whole entry, the tested form may be a part): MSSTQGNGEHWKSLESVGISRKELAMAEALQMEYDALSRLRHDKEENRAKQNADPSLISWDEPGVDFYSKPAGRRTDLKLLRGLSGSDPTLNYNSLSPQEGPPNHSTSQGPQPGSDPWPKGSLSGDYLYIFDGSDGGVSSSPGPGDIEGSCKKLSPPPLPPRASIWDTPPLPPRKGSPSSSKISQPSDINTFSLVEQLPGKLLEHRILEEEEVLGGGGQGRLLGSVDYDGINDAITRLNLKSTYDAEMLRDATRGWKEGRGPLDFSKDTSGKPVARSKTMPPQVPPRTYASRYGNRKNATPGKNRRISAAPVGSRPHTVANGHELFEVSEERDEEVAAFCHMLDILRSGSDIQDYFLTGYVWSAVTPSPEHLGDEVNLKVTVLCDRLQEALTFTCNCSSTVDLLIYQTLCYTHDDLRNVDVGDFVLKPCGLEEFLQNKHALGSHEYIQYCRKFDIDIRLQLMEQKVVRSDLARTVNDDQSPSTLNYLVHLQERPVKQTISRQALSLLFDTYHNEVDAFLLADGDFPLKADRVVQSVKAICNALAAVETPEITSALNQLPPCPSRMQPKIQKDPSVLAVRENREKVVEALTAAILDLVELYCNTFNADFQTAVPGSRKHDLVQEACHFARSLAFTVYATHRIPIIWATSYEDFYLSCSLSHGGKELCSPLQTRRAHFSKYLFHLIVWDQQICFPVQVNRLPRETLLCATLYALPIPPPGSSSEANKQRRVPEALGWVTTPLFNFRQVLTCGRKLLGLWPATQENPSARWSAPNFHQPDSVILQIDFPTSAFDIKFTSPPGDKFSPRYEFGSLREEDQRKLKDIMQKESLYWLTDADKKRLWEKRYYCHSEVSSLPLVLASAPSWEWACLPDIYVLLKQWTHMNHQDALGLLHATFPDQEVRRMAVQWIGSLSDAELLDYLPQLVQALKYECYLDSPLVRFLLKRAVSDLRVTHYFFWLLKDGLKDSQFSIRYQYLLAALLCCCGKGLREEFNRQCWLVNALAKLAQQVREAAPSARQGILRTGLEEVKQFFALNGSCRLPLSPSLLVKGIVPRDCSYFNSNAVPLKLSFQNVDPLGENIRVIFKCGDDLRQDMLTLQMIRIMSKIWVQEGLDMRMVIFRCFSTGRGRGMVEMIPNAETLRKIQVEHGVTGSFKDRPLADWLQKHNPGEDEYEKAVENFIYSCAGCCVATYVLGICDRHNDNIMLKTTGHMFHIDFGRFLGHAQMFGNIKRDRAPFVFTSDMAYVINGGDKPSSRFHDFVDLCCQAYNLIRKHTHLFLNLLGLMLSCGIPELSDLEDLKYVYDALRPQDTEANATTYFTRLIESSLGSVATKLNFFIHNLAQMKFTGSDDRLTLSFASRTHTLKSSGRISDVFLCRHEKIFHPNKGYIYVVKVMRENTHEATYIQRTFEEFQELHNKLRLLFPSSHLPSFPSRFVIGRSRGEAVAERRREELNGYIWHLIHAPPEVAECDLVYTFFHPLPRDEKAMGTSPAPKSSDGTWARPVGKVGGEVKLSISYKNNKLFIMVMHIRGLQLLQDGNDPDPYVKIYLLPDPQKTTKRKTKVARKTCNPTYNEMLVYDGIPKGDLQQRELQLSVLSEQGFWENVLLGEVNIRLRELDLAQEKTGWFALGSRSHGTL

SMILES: CNC(=O)Nc1ccc(-c2nc(N3CC4CCC(C3)O4)c3cnn(C4CCC5(CC4)OCCO5)c3n2)cc1
- % of control [1]: 99%

- % of inhibition [2]: 0.7%
SMILES: CC[C@@H]1[C@H](F)C(=O)N[C@@H]1COc1nccc2cc(C(N)=O)c(OC)cc12 [ZIMLOVISERTIB]

- % of control ([3]; at 1 µM): 100%
- % of control ([3]; at 5 µM): 99%
SMILES: C=CC(=O)Nc1cccc(C(=O)Nc2ccc(Nc3cc(-c4[nH]c(SC)nc4C)ccn3)cc2)c1

SMILES: CN(C)C/C=C/C(=O)Nc1ccc(C(=O)N2CCCC(Nc3ncc(Cl)c(-c4c[nH]c5ccccc45)n3)C2)cc1 (centres undefined)
- % of control [4]: 94%

SMILES: C=CC(=O)Nc1cc(-n2c(=O)ccc3cnc4ccc(-c5ccc(NS(C)(=O)=O)cc5)cc4c32)ccc1C
- % of control ([5]; at 1 µM): 100%
- % of control ([5]; at 10 µM): 84%

SMILES: Nc1cnc(N2CCc3cc(S(=O)(=O)Nc4c(F)cc(Cl)cc4F)cc(N4CCCC4=O)c32)nc1 [TP-020n]
- % of control [6]: 95%

SMILES: N#Cc1cccc(-c2c[nH]c3ncnc(N4CCOCC4)c23)c1
- % of inhibition [7]: 15%

Source: ChEMBL document CHEMBL5465560, “Selectivity Literature for EUbOPEN Chemogenomic Library” (2024)
